# Measured values as given in patent US20260034119A1, “5-METHOXY-N,N-[…][…], THEIR […], AND METHODS FOR TREATMENT OF NEUROLOGICAL, […], AND SUBSTANCE USE DISORDERS” (priority 2023, published 2026).
# Entries after “also recorded” stand apart in the source; their conditions may differ. Like-named read-outs stand apart in the source and are kept apart here.
# How the values were obtained:
# [1] = tested on: C57BL6J mice; test: Catalepsy bar test (tetrabenazine / haloperidol induced); assay type: in vivo, mouse; details: 10.0 & 20.0 mg/kg s.c., 60 min post inj., vs vehicle
# Excerpt: Catalepsy, characterized by muscular rigidity and fixity of posture irrespective of external stimuli (Mann et al. 2015, Karuppagounder et al 2012) is a recognized model for Parkinson's disease (PD) in rodents, induced by dopamine (DA) antagonists such as haloperidol, and DA depleting agents like tetrabenazine (TBZ) (Jastrzębska-Więsek et al. 2022, Bhangale et al. 2016). TBZ, a reversible inhibitor of the type-2 vesicular monoamine transporter, primarily affects dopamine neurons by blocking vesicular storage and depleting monoamines (Jastrzębska-Więsek et al. 2022). In contrast, Haloperidol, a nonselective D2 dopamine antagonist, […] (Bhangale et al. 2016). C57BL6J mice are administered TBZ/Haloperidol at t=0 min and 4-F, 5-MeO-PyrT at t=30 min via subcutaneous injection, with Haloperidol (0.5 mg/kg) given intraperitoneal injection. Mice are tested individually at t=60 min, and catalepsy is defined by the absence of movement for 30-60 seconds with a cutoff time set to 60 second. […] The automated Maze Engineers Catalepsy Bar test, featuring sensors to detect forelimb removal from the bar, facilitates automatic recording of forelimb movement duration from the bar to the ground.
# [2] = tested on: C57BL/6J mice; test: Sucrose preference test after chronic social defeat stress; assay type: in vivo, mouse; details: stressed mice, relative to vehicle-treated animals
# Excerpt: The sucrose preference test is a volitional two-bottle choice procedure in which mice are given the choice between consuming water and a 1% sucrose solution. This paradigm has been used extensively to assess the effects of stress-induced anhedonia. On day 10 of CSDS mice were individually housed and habituated to two bottles containing just water. Twenty-four hours later, following the SI test, one bottle was replaced with a 1% sucrose solution (w/v) made with water from the animal vivarium. Mice had ad libitum overnight access to both bottles and preference for sucrose over water was calculated as follows: [sucrose/(sucrose+water)*100]. Data were averaged from two independent experiments. A total of 27 mice were administered vehicle (9 control, 18 stress), 27 received 4-F, 5-MeO-PyrT (9 control, 18 stress), 15 received WAY-100635 (5 control, 10 stress), and 15 received 4-F, 5-MeO-PyrT+WAY-100635 (5 control, 10 stress). More animals were used for the stressed groups due to the inherent resilience of mice to social defeat stress (Krishnan et al. 2007). Analysis of different treatment conditions of control and stressed animals was done in GraphPad Prism using two-way ANOVA.
# [3] = target: T1, 5-HT2A (Homo sapiens, UniProt P28223); test: cell-based; set-up: expressed in transfected cells; host or cells: HEK293-T; details: for Emax: read-out: 5-HT2A (IP1) Emax (%5-HT)
# T1 sequence (P28223 whole entry): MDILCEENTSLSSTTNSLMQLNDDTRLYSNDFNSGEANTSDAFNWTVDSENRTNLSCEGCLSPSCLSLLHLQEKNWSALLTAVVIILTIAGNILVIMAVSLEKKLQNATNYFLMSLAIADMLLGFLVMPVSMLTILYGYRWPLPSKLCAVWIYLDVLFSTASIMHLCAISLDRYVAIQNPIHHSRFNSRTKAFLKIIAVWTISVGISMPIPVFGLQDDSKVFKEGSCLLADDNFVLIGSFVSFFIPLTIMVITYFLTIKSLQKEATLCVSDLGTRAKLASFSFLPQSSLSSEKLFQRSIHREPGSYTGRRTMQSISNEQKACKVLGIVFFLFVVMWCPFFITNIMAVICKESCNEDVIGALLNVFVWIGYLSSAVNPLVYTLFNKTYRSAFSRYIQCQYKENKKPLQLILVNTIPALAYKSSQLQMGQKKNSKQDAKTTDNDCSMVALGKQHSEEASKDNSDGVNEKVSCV
# [4] = target: T2, 5-HT1A (Homo sapiens, UniProt P08908); test: cell-based
# [5] = Microsomal stability, human liver microsomes; assay type: in vitro ADME; details: versus the DMT analogs
# Description: Microsomal incubations were carried out in 96-well plates in 5 aliquots of 30 μL each (one for each time point). Liver microsomal incubation medium comprised of phosphate buffer (100 mM, pH 7.4), MgCl2 (3.3 mM), NADPH (3 mM), glucose-6-phosphate (5.3 mM), glucose-6 phosphate dehydrogenase (0.67 units/ml) with 0.42 mg of liver microsomal protein per ml. In the control reactions the NADPH-cofactor system was substituted with phosphate buffer. Test compounds (2 μM, final solvent concentration 1.6%) were incubated with microsomes at 37° C., shaking at 100 rpm. Each reaction was performed in duplicates. Five time points over 90 minutes were analyzed. The reactions were stopped by adding 5 volumes of methanol containing internal standard to incubation aliquots, followed by protein sedimentation by centrifuging at 5500 rpm for 4 minutes. Supernatants were analyzed using the HPLC system coupled with tandem mass spectrometer. The elimination constant (kel), half-life (t1/2) and intrinsic clearance (Clint) were determined in plot of […] versus time, using linear regression analysis.
# [6] = target: 5-HT2B (Homo sapiens, UniProt P41595); test: IP1 functional assay 5-HT2B; assay type: cell-based; details: for Emax: read-out: 5-HT2B (IP1) Emax (%5-HT)
# Sequence of 5-HT2B (P41595 whole entry, species assumed): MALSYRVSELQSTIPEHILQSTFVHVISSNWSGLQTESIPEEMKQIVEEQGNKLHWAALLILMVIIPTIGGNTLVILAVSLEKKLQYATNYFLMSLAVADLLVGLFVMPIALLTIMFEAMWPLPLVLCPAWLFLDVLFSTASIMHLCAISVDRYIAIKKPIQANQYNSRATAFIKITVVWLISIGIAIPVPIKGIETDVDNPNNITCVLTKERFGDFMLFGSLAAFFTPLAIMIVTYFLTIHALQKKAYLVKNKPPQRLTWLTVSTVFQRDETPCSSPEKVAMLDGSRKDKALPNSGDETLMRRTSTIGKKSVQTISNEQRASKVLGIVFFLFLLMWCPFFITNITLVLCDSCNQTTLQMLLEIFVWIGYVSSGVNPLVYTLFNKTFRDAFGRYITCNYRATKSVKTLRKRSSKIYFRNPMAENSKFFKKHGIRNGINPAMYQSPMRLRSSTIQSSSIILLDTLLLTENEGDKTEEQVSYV
# [7] = target: T1, 5-HT2A; test: cell-based
# [8] = target: T3, MAO-A (Homo sapiens, UniProt P21397); test: MAO-A activity (metabolism of compound); details: versus the DMT analogs
# T3 sequence (P21397 1-527): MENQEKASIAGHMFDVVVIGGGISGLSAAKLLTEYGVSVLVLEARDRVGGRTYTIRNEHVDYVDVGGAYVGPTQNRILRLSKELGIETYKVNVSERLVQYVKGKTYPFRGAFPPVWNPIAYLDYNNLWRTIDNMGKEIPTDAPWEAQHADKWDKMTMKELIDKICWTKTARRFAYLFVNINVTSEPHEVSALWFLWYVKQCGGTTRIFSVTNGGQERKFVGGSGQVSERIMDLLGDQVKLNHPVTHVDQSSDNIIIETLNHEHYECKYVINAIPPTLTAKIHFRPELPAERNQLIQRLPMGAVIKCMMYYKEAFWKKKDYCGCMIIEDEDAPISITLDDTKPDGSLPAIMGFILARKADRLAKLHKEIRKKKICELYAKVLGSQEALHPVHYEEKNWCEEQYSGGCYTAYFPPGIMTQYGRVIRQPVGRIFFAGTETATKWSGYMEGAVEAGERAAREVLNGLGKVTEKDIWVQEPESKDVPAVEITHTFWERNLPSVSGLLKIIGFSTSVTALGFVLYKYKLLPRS
# [9] = target: T4, human 5-HT1A (Homo sapiens, UniProt P08908); test: cell-based
# T4 sequence (P08908 1-422): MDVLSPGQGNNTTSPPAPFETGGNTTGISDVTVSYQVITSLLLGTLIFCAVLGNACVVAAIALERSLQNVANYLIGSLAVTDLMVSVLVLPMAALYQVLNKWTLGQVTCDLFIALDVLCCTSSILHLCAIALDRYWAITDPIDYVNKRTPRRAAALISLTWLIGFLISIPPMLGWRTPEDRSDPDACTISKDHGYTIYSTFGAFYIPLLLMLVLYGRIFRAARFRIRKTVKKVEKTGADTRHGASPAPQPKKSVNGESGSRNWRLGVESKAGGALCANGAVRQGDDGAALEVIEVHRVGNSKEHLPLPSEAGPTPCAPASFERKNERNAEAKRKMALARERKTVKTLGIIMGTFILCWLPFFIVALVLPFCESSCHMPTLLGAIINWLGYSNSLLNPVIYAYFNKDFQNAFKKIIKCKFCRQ
# [10] = target: T2, 5-HT1A; test: BRET signaling assay: 5-HT1A-mediated activation of heterotrimeric Gi1 (TRUPATH, HEK293-T); details: Gi BRET EC50
# [11] = tested on: mice; test: Open field locomotor activity; assay type: in vivo, mouse; details: mice, s.c.
# [12] = tested on: C57BL/6J mice; test: Head twitch response (HTR); assay type: in vivo, mouse; details: s.c., presence or absence of 5-HT1A antagonist WAY-100635
# Description: The head-twitch response evaluation was performed by trained observers who were blinded to both drug and dose. Mice were habituated to the testing room 30 min. The body weight of each mouse was recorded. The HTR was defined as a rapid rotational movement of the head around the longitudinal axis of the animals' body. Mice were administered with vehicle or WAY100,635 (1 mg/kg or 2 mg/kg, sc). Fifteen minutes after the pretreatment injection mice were administered either 4F, 5-MeO-MET (0.1, 0.3, 1 or 3 mg/kg, sc) or 5-MeO-MET (0.3, 1, 3, and 10 mg/kg, sc) and placed in a novel observation cage. An overhead camera (GoPro HERO9 at a 120 Hz, San Mateo, CA, US) recorded their movements. Observers scored HTR from recorded footage for the first 10-min period.
smiles,measurement,setting,value
COc1cc2c(cc1OC)C1CC(=O)C(CC(C)C)CN1CC2 (stereo not drawn) [Tetrabenazine],induction of catalepsy,[1],significantly induces catalepsy
"COc1ccccc1N1CCN(CCN(C(=O)C2CCCCC2)c2ccccn2)CC1 [WAY-100635, reference compound]",sucrose preference,[2],not statistically significant
"CCCN(CCC)CCc1c[nH]c2ccc(OC)c(F)c12 [Compound 30, N-(2-(4-fluoro-5-methoxy-1H-indol-3-yl)ethyl)-N-propylpropan-1-amine]",EC50,[3],0.18 µM
same,Emax,[3],100%
same,EC50,[4],0.0037 µM
same,microsomal stability in human microsomes,[5],greater stability in human microsomes versus the DMT analogs
same,EC50,[6],0.099 µM
same,Emax,[6]; Table 3,86%
same,EC50,[7],0.142 µM
same,MAO A metabolism,[8],markedly slower MAO A metabolism versus the DMT analogs
same,EC50,[9],0.00131 µM
CCN(C)CCc1c[nH]c2ccc(OC)cc12 [Compound 5-MeO-MET],EC50,[10],0.0259 µM
same,EC50,[3],0.096 µM
same,Emax,[3],107%
same,locomotor suppression in the open field (OF) test,[11],dose-dependent locomotor suppression
same,EC50,"[6]; Table 3, read-out: 5-HT2B (IP1) EC50",0.13 µM
same,Emax,[6]; Table 3,62%
same,"head-twitch response (HTR), measure of 5-HT2A-mediated hallucinogenic activity",[12],robust HTR in the presence of WAY100; also recorded: robust dose-dependent activity
